What was measured:
[1] = rat, in vivo
[2] = rat, in vivo, po, 10 mg/kg
[3] = system: adjuvant-induced arthritis in rats; test: Embodiment 3: oral Nib1 and methotrexate in adjuvant-induced arthritis in rats (joint score, paw volume, AUC); format: in vivo, Lewis rat
[4] = system: rat adjuvant-induced arthritis model; test: Embodiment 2: oral Nib1 and medium-dose methotrexate in rat adjuvant-induced arthritis model (joint score, paw volume, AUC); format: in vivo, Lewis rat; conditions: MTX 0.5 mpk, Nib1 5 mpk, Nib1 5 mpk + MTX 0.5 mpk
[5] = system: Lewis rat adjuvant-induced arthritis model; test: Embodiment 1: oral Nib1 and injected methotrexate in Lewis rat adjuvant-induced arthritis model (joint score, paw volume, AUC); format: in vivo
[6] = day 0, oral, Tofacitinib 5 mpk, MTX 0.05 mpk, Nib1 1 mpk, Nib1 1 mpk + MTX 0.05 mpk
[7] = day 8, oral, Tofacitinib 5 mpk, MTX 0.05 mpk, Nib1 1 mpk, Nib1 1 mpk + MTX 0.05 mpk
[8] = day 11, oral, Tofacitinib 5 mpk, MTX 0.05 mpk, Nib1 1 mpk, Nib1 1 mpk + MTX 0.05 mpk
[9] = day 15, oral, Tofacitinib 5 mpk, MTX 0.05 mpk, Nib1 1 mpk, Nib1 1 mpk + MTX 0.05 mpk
[10] = day 18, oral, Tofacitinib 5 mpk, MTX 0.05 mpk, Nib1 1 mpk, Nib1 1 mpk + MTX 0.05 mpk

For `O=c1[nH]c2ccccc2n1C1CCN(CCCC(c2ccc(F)cc2)c2ccc(F)cc2)CC1` [Nib1, Pimozide], which “changes in body weight over time (Table 5, FIG. 5)” value [1] is on record?
The value was “decreased significantly in the initial stage, and gradually recovered in the later stage”.

What about the “changes in body weight over time (FIG. 1)” value [2] of the same compound?
Its value is “lower than other groups, but there was no significant difference”.

What about the “Relative to G2 percentage (%) (AUC of changes in paw volume)” value ([3]; Embodiment 3, G2 = Vehicle, oral, Tofacitinib 5 mpk, MTX 0.05 mpk, Nib1 1 mpk, Nib1 1 mpk + MTX 0.05 mpk) of the same compound?
The value was 74.9%.

What about the “change ratio of ΔAUC relative to the vehicle group, as fraction” value ([3]; Embodiment 3, methotrexate 0.05 mg/kg, Nib1 1 mg/kg) of the same compound?
The value was 0.749.

And the “Area under the curve AUC (ml*day) of changes in paw volume” value ([3]; Embodiment 3, oral, Tofacitinib 5 mpk, MTX 0.05 mpk, Nib1 1 mpk, Nib1 1 mpk + MTX 0.05 mpk)?
The value was 14.26 mL·days.

What about the “Clinical scoring of arthritis (sum of the scores of the quadrupedal joints), Average value” (“Clinical scoring of arthritis” for short) [3, 6] of the same compound?
The value was 0.00.

And the “volume of the right hind foot, Average value” (“volume of the right hind foot” below) [3, 6]?
The value was 1.31 mL.

And the “Clinical scoring of arthritis” value [3, 7]?
Its value is 0.78.

And the “volume of the right hind foot” value [3, 7]?
The value was 1.44 mL.

And the “Clinical scoring of arthritis” value [3, 8]?
Its value is 3.33.

What about the “volume of the right hind foot” value [3, 8] of the same compound?
Its value is 1.79 mL.

And the “Clinical scoring of arthritis” value ([3]; day 13, oral, Tofacitinib 5 mpk, MTX 0.05 mpk, Nib1 1 mpk, Nib1 1 mpk + MTX 0.05 mpk)?
The value was 5.22.

What about the “Clinical scoring of arthritis” value [3, 9] of the same compound?
Its value is 6.33.

And the “volume of the right hind foot” value [3, 9]?
Its value is 2.41 mL.

What about the “Clinical scoring of arthritis” value [3, 10] of the same compound?
Its value is 7.89.

And the “volume of the right hind foot” value [3, 10]?
Its value is 2.73 mL.

And the “Clinical scoring of arthritis” value ([3]; day 21, oral, Tofacitinib 5 mpk, MTX 0.05 mpk, Nib1 1 mpk, Nib1 1 mpk + MTX 0.05 mpk)?
The value was 8.56.

And the “volume of the right hind foot” value ([3]; day 22, oral, Tofacitinib 5 mpk, MTX 0.05 mpk, Nib1 1 mpk, Nib1 1 mpk + MTX 0.05 mpk)?
Its value is 3.10 mL.

And the “Clinical scoring of arthritis” value ([3]; day 24, oral, Tofacitinib 5 mpk, MTX 0.05 mpk, Nib1 1 mpk, Nib1 1 mpk + MTX 0.05 mpk)?
The value was 8.67.

And the “Relative to G2 percentage (%) (AUC of changes in paw volume)” value ([4]; Embodiment 2, G2 = Vehicle, Tofacitinib 5 mpk)?
The value was 56.9%.

And the “Total area (AUC of changes in paw volume)” value ([4]; Embodiment 2, Tofacitinib 5 mpk, in mL·day)?
The value was 21.32.

What about the “Clinical scoring of arthritis” value ([4]; day 0, Tofacitinib 5 mpk) of the same compound?
Its value is 0.

And the “paw volume (right hind foot), Average value” (“paw volume (right hind foot)” for short) ([4]; day 0, Tofacitinib 5 mpk)?
Its value is 1.02 mL.

And the “Clinical scoring of arthritis” value ([4]; day 7, Tofacitinib 5 mpk)?
The value was 0.63.

And the “paw volume (right hind foot)” value ([4]; day 7, Tofacitinib 5 mpk)?
Its value is 1.71 mL.

What about the “Clinical scoring of arthritis” value ([4]; day 13, Tofacitinib 5 mpk) of the same compound?
Its value is 1.75.

What about the “paw volume (right hind foot)” value ([4]; day 13, Tofacitinib 5 mpk) of the same compound?
The value was 1.88 mL.

And the “Clinical scoring of arthritis” value ([4]; day 15, Tofacitinib 5 mpk)?
Its value is 5.50.

What about the “paw volume (right hind foot)” value ([4]; day 15, Tofacitinib 5 mpk) of the same compound?
The value was 1.94 mL.

And the “Clinical scoring of arthritis” value ([4]; day 17, Tofacitinib 5 mpk)?
The value was 6.75.

And the “paw volume (right hind foot)” value ([4]; day 17, Tofacitinib 5 mpk)?
The value was 2.05 mL.

And the “Clinical scoring of arthritis” value ([4]; day 20, Tofacitinib 5 mpk)?
Its value is 7.00.

And the “paw volume (right hind foot)” value ([4]; day 20, Tofacitinib 5 mpk)?
The value was 2.05 mL.

And the “Clinical scoring of arthritis” value ([4]; day 22, Tofacitinib 5 mpk)?
Its value is 7.25.

What about the “paw volume (right hind foot)” value ([4]; day 22, Tofacitinib 5 mpk) of the same compound?
Its value is 2.00 mL.

And the “Clinical scoring of arthritis” value ([4]; day 24, Tofacitinib 5 mpk)?
The value was 7.25.

And the “paw volume (right hind foot)” value ([4]; day 24, Tofacitinib 5 mpk)?
Its value is 2.06 mL.

What about the “Clinical scoring of arthritis” value ([4]; day 27, Tofacitinib 5 mpk) of the same compound?
Its value is 7.00.

What about the “paw volume (right hind foot)” value ([4]; day 27, Tofacitinib 5 mpk) of the same compound?
Its value is 2.20 mL.

What about the “Clinical scoring of arthritis” value ([4]; day 29, Tofacitinib 5 mpk) of the same compound?
The value was 6.88.

What about the “paw volume (right hind foot)” value ([4]; day 29, Tofacitinib 5 mpk) of the same compound?
Its value is 2.16 mL.

What about the “Clinical scoring of arthritis” value ([4]; day 31, Tofacitinib 5 mpk) of the same compound?
Its value is 7.13.

And the “paw volume (right hind foot)” value ([4]; day 31, Tofacitinib 5 mpk)?
The value was 2.16 mL.

And the “Clinical scoring of arthritis” value ([4]; day 34, Tofacitinib 5 mpk)?
Its value is 6.88.

What about the “paw volume (right hind foot)” value ([4]; day 34, Tofacitinib 5 mpk) of the same compound?
Its value is 1.02 mL.

And the “the therapeutic effects compared with vehicle group (paw volume x time AUC %)” value ([5]; methotrexate 0.5 mg/kg intraperitoneal once per week, Nib1 10 mg/kg oral once every two days)?
Its value is 66.6%.

And the “paw volume AUC relative to vehicle group, as fraction” value ([5]; methotrexate 0.5 mg/kg intraperitoneal, Nib1 10 mg/kg oral)?
Its value is 0.666.

From patent US12409179B2 (GENEROS BIOPHARMA LTD., priority 2019, dated 2025)
